Reference: patent publication US8822477B2, “Use of osmolytes obtained from extremophilic bacteria for producing medicine for the external treatment of neurodermatitis” (Bitop AG, priority 2003, dated 2014)

System: neurodermatitis
Experiment: topical treatment of neurodermatitis compared with placebo treatment
Assay type: in vivo
Conditions: for healing of affected skin changes: in comparison to a placebo treatment; for effectiveness in the treatment of neurodermatitis: topic application

SMILES | healing of affected skin changes | effectiveness in the treatment of neurodermatitis
CC1=NCC[C@@H](C(=O)O)N1 [ectoine] | unexpectedly accelerated healing of affected skin changes | surprisingly high effectiveness
CC1=NC[C@H](O)[C@@H](C(=O)O)N1 [hydroxyectoine] | unexpectedly accelerated healing of affected skin changes | surprisingly high effectiveness
